Experimental data as given in ChEMBL document CHEMBL1201862, “PubChem BioAssay data set” (2004).
The source made the active and inactive calls.

Experiments:
[1] = molecular target: T1, Endoribonuclease toxin MazF (Escherichia coli K-12, UniProt P0AE70); assay: fluorescent RNA oligo signal without MazF, dose response, counter-screen for MazEF activator project, biochemical, fluorescence, single-stranded RNase substrate (AID 588502); type: functional
T1 sequence (P0AE70 whole entry): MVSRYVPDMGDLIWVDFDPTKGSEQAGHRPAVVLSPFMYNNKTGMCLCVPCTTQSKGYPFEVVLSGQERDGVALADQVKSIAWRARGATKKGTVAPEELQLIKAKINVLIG

[2] = Luminescence-based cell-based high throughput dose response assay to identify activators of the DAF-12 from the parasite S. stercoralis (ssDAF-12).; type: functional
[3] = molecular target: T1, Endoribonuclease toxin MazF; assay: MazF toxin RNase activators, dose response, biochemical, fluorescence, single-stranded RNA substrate, uHTS hits (AID 588481); type: functional
[4] = molecular target: T2, Oxysterols receptor LXR-beta (Homo sapiens, UniProt P55055); assay: LXR agonists, Gal4 luciferase reporter, dose response, counter-screen for ssDAF-12 agonist project, cell-based, luminescence, HEK293, S. stercoralis campaign (AID 720737); type: functional; conditions: read-out: IC50 (the source's name)
T2 sequence (P55055 whole entry): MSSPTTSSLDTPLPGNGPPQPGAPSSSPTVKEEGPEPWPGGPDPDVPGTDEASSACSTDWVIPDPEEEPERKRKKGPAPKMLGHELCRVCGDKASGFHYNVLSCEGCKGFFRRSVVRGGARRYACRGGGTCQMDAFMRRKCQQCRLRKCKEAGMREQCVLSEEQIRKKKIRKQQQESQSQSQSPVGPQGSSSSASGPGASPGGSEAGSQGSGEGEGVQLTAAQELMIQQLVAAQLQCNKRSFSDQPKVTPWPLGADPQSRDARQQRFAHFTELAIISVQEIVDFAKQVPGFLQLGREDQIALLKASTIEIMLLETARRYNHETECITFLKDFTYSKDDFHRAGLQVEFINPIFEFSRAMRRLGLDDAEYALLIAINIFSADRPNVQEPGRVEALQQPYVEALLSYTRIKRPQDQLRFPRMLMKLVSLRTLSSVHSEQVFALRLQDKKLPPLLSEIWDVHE

[5] = THP-1 cell cytotoxicity, dose response, cytotoxicity control for Vif-APOBEC3G degradation inhibitor project, THP-1 cells (AID 1117359); type: functional; conditions: Human immunodeficiency virus 1, THP-1
Estrogen receptor beta [6] = molecular target: T3, Estrogen receptor beta (Homo sapiens, UniProt Q92731);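 also: recombinant ER-beta bound to coactivator SRC1 peptide in presence of estradiol agonist; inhibitors block coactivator peptide binding and lower the FRET signal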
T3 sequence (Q92731 whole entry): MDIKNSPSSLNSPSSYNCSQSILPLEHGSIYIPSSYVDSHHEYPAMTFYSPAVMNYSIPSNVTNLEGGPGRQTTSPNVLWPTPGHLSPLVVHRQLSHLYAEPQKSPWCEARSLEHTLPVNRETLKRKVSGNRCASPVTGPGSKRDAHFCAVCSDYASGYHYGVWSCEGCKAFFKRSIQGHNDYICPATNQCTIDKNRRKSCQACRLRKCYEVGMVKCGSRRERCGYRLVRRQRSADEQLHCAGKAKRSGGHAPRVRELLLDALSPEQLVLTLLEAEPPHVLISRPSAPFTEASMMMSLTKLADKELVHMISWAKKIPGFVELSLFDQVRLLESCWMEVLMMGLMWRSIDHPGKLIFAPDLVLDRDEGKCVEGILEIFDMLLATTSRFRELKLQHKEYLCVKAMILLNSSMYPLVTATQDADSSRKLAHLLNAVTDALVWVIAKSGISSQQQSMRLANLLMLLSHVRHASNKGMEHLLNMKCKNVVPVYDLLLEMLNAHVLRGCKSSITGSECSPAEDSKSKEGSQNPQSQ

Estrogen receptor beta [7] = molecular target: T3, Estrogen receptor beta; assay: ERβ–SRC-3 coactivator interaction inhibitors, confirmation, orthogonal assay, biochemical, ELISA, streptavidin-HRP readout (AID 1060)
Estrogen receptor = molecular target: T4, Estrogen receptor (Homo sapiens, UniProt P03372);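 also: potency for inhibiting coactivator peptide recruitment to the receptor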
T4 sequence (P03372 whole entry): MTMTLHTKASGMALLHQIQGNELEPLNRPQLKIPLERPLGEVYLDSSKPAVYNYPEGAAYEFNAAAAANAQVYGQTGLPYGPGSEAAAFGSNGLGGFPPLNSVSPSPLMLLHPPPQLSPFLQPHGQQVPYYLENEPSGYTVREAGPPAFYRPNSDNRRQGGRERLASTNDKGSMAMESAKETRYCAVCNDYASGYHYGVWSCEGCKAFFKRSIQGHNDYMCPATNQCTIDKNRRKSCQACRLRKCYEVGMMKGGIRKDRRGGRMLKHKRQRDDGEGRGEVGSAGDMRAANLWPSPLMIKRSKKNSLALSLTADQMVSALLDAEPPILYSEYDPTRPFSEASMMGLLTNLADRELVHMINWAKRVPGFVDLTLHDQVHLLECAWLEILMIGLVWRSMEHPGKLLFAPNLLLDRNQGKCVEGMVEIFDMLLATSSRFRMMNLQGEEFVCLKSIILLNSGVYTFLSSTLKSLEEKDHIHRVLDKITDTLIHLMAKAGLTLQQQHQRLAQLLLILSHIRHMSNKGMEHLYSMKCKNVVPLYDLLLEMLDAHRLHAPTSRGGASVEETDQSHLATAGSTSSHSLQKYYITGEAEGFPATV

[8] = inhibitors of PGC1a acetylation in cells, dose response, cell-based, cherry-picked samples (AID 720514); type: functional;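 also: potency may reflect raised or lowered acetylation signal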
Caspase-6 = molecular target: T5, Caspase-6 (Homo sapiens, UniProt P55212); assay: human caspase-6 inhibitors, dose response, biochemical, VEID-R110 fluorescence, cherry-pick (AID 720632)
T5 sequence (P55212 whole entry): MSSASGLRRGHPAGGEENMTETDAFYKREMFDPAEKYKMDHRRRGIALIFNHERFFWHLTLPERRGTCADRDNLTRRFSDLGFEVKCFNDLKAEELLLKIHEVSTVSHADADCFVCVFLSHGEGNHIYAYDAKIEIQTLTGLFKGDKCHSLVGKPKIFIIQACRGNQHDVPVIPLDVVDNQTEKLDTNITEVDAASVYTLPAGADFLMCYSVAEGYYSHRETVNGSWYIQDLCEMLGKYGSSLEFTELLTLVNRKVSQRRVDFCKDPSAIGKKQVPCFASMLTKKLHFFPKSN

[9] = tested on: Streptococcus sp. 'group A'; assay: growth inhibition of control SK(-) GAS strain, dose response, counter-screen for streptokinase expression inhibitor project, luminescence, kanamycin, BacTiterGlo, confirmation (AID 1900); type: functional, organism-based
[10] = microbe, parasite or virus in culture; type: functional; conditions: Mycobacterium tuberculosis
Streptokinase A = molecular target: T6, Streptokinase A (Streptococcus pyogenes serotype M1, UniProt P10520); assay: S. pyogenes streptokinase expression inhibitors, potency, dose response, plasminogen activation absorbance, OD405 (AID 1914); type: functional, Streptococcus pyogenes M1 GAS;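 also: secreted streptokinase activity via plasminogen activation per viability signal from cell pellet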
T6 sequence (P10520 whole entry): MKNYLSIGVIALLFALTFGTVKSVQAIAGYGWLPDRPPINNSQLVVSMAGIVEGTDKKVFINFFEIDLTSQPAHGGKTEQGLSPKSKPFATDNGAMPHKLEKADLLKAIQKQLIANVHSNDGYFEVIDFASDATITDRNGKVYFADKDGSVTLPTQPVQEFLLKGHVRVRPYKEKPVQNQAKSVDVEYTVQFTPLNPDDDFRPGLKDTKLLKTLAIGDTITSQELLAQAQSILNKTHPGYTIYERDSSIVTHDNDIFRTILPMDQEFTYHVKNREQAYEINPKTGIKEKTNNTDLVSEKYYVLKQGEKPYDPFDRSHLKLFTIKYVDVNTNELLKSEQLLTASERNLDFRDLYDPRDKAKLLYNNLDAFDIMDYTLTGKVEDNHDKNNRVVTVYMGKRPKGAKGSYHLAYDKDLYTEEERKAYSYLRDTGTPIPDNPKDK

[11] = cytotoxicity toward NIH3T3 fibroblasts, dose response, counter-screen, cell-based, ATP luminescence, mouse fibroblasts (AID 2010); type: functional;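 also: cells exposed to compound for about 90 hours before reading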
Streptococcus = assay: Group A Streptococcus viability loss, dose response, counter-screen for streptokinase expression inhibitor project, luminescence, BacTiterGlo (AID 1915); type: functional, organism-based;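 also: potency for reduction of bacterial viability or growth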
[12] = inhibitors of intracellular T. cruzi replication, confirmation, NIH3T3 host cells, beta-gal luminescence (AID 2044); type: functional, cell-based;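 also: intracellular parasites grown in NIH/3T3 mouse fibroblasts as host cells; luminescent beta-galactosidase reporter signal from transgenic T. cruzi replicating inside host cells; inhibitors lower the luminescence signal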
[13] = C. albicans growth with fluconazole, confirmation, fluorescence, retest (AID 2467); type: functional, cell-based
[14] = NIH-3T3 fibroblast cytotoxicity, dose response, cytotoxicity control, cell-based, fluorescence, Alamar Blue, secondary assay (AID 2327); type: functional;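 also: NIH-3T3 mouse fibroblasts cultured with fluconazole at 8 µg/mL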
[15] = Luminescence-based counterscreen assay for KLF5 inhibitors: dose response cell-based high throughput screening assay to identify cytotoxic compounds using the IEC-6 intestinal epithelial cell line. [Related pubchem assays: 1700 (Primary screen.), 1834 (Confirmation screen.), 1858 (Summary AID.), 1905 (Counterscreen.)]; type: functional
cells [16] = type: functional, cell-based
cells [17] = type: functional, cell-based; remark: listed apart in the source
INS1 = assay: beta cell apoptosis inhibitors, cytokine rescue, dose response, luminescence, retest (AID 449756); type: functional, cell-based; conditions: Rattus norvegicus;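 also: cell death triggered by IL-1 beta plus TNF-alpha plus IFN-gamma mixture; protective hits raise ATP signal compared with cytokine alone wells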
Paired box protein Pax-8 = Paired box protein Pax-8 (Homo sapiens, UniProt Q06710); assay: inhibitors of PAX8-driven TPO luciferase reporter, dose response, RMG-I cells, cherry-pick (AID 687027); type: functional, cell-based;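 also: luciferase reporter driven by Pax8 target thyroperoxidase promoter measured by SteadyGlo luminescence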
Paired box protein Pax-8, sequence (Q06710 whole entry): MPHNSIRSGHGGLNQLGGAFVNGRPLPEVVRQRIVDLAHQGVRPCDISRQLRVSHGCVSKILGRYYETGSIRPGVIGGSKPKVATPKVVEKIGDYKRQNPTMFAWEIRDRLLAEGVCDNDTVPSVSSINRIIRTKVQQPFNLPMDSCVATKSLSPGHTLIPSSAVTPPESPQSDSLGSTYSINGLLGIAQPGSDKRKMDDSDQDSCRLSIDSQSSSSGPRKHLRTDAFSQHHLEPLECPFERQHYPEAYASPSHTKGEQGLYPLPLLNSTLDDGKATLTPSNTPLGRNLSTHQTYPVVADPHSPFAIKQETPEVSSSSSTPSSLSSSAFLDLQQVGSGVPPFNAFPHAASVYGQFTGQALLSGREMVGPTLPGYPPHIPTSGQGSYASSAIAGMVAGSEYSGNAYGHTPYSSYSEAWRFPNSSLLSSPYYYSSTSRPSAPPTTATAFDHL

[18] = cytotoxicity in OVCAR8 ovarian cancer cells, dose response, PAX8 project, cell-based, plate reader, dry powder samples (AID 743197); type: functional; conditions: OVCAR-8
[19] = non-specific cell cytotoxicity, dose response, cytotoxicity control for PAX8 inhibitor project, plate reader, dry powder samples (AID 743021); type: functional, cell-based
[20] = NIH:OVCAR-3 ovarian cancer cell cytotoxicity, dose response, PAX8 inhibitor project, plate reader, dry powder samples (AID 743044); type: functional, cell-based
[21] = HepG2 cell cytotoxicity, dose response, cytotoxicity control, cherry-picked samples (AID 1159577); type: functional, cell-based
[22] = P. falciparum Dd2 growth inhibitors, dose response, SYBR Green, cherry-picked samples (AID 1159567); type: functional, cell-based
[23] = IGROV1 ovarian cancer cell cytotoxicity, dose response, PAX8 inhibitor project, plate reader, dry powder samples (AID 743043); type: functional, cell-based; conditions: IGROV-1
[24] = molecular target: Luciferin 4-monooxygenase (Photinus pyralis, UniProt P08659); assay: firefly luciferase enzyme inhibitors, dose response, biochemical, luminescence (AID 1891)
Luciferin 4-monooxygenase, sequence (P08659 whole entry): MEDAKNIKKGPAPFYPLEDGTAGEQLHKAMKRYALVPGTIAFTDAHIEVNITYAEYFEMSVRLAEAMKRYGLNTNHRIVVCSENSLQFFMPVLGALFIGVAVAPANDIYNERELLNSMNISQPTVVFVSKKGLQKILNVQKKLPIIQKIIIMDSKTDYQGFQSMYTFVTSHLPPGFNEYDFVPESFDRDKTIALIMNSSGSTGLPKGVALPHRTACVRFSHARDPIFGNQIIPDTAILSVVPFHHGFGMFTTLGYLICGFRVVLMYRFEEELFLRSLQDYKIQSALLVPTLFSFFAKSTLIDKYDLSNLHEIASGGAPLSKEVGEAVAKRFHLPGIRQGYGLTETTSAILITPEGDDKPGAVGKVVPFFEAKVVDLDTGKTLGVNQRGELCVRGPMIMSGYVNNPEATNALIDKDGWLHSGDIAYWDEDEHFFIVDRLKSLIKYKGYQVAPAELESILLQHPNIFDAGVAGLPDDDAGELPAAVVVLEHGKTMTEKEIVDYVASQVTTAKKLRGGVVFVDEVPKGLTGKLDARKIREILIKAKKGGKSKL

[25] = Luminescence Cell-Based Dose Confirmation HTS to Identify Inhibitors of Platelet Dense Granule Release. [Related pubchem assays: 1663 (Primary HTS), 1678 (Summary of Project)]; type: functional

CCn1c(C)cc(C=C2C(=O)c3ccccc3C2=O)c1C
EC50 [1]: 62.8 µM (inactive) | IC50 [2]: > 67.5 µM (inactive) | EC50 [3]: 44.5 µM (inactive) | EC50 [4]: > 67.5 µM (inactive)

CCOc1ccc(C(=O)NC(=S)Nc2ccc(N3CCC(C)CC3)cc2)cc1[N+](=O)[O-]
CC50 [5]: > 40 µM (active)

Cc1ccc(-n2c(=O)c(C#N)cc3c(=O)n4cccc(C)c4nc32)cc1
IC50 (Estrogen receptor beta [6]): 25.4 µM (active) | IC50 (Estrogen receptor beta [7]): < 77 µM (not active) | IC50 (Estrogen receptor): 30.9 µM (not active)

CCCCOc1ccc(/C=C/C(=O)OCC(=O)c2c(N)n(C)c(=O)n(C)c2=O)cc1OCC
AC50 [8]: 12.6 µM (active)

COc1ccc(-c2nn(-c3ccccc3)cc2C(=O)Nc2cccc(C(=O)O)c2)cc1[N+](=O)[O-]
AC50 (Caspase-6): 5.45 µM (active)

COc1ccc(-c2nc3ccccc3c(=O)o2)cc1OC
AC50 [8]: 28.1 µM (active)

CC(C)c1ccc(-c2nnn(CC(=O)N3CCCCC3)n2)cc1
AC50 [8]: 24.3 µM (active)

COC(=O)[C@]1(C)N[C@H](CN(C)C(C)=O)[C@@H]2C(=O)N(Cc3ccccc3)C(=O)[C@@H]21
IC50 [2]: > 67.5 µM (inactive) | EC50 [4]: > 67.5 µM (inactive)

O=C(N/N=C\C=C\c1ccc([N+](=O)[O-])o1)c1cccs1
AC50 (Caspase-6): 7.38 µM (active) | EC50 [9]: 3.56 µM (active) | CC50 [10]: 30.6 µM (active) | EC50 (Streptokinase A): > 150 µM (not active) | EC50 [11]: 5.29 µM (active) | EC50 (Streptococcus): 6.16 µM (active) | EC50 [12]: 0.243 µM (active) | EC50 [13]: 0.068 µM (active) | EC50 [14]: > 160 µM (inconclusive)

COc1ccc(OC)c2[nH]c(C(=O)N/N=C/c3ccccc3O)cc12
IC50 [15]: 12.5 µM (not active) | EC50 [9]: 1.96 µM (active) | EC50 (cells [16]): > 350 µM (not active) | EC50 (cells [17]): 12.2 µM (active) | EC50 (Streptococcus): 2.37 µM (active) | EC50 [13]: 1.86 µM (active) | EC50 [14]: > 160 µM (inactive) | AC50 (INS1): 2.12 µM (active)

O=C(O)c1ccccc1NS(=O)(=O)c1ccc(N/N=C/c2cccc(O)c2O)c([N+](=O)[O-])c1
AC50 (Caspase-6): 6.45 µM (active)

C[C@H](CO)N1C[C@H](C)[C@@H](CN(C)C(=O)Cc2ccccc2)OCCCC[C@H](C)Oc2ccc(NC(=O)Nc3ccc(C(F)(F)F)cc3)cc2C1=O
AC50 (Paired box protein Pax-8): 4.34 µM (active) | AC50 [18]: > 70 µM (inactive) | AC50 [19]: 48.5 µM (active)

CCCC#Cc1ccc([C@H]2[C@@H](CO)N3CCCCN(S(=O)(=O)Cc4ccccc4)C[C@H]23)cc1
AC50 (Paired box protein Pax-8): 20.5 µM (active) | AC50 [20]: 23.5 µM (active) | AC50 [18]: > 70 µM (inactive) | AC50 [21]: 11.9 µM (active) | AC50 [22]: 2.67 µM (active) | AC50 [23]: 30.9 µM (active)

CC(=N)/C(C#N)=C(/O)CSc1nnnn1-c1ccc(C)cc1
IC50 (Estrogen receptor beta [6]): 13.7 µM (active) | IC50 (Estrogen receptor beta [7]): 0.345 µM (not active)

O=C(Nc1ccccc1)N1CCCCN2[C@@H](CO)[C@@H](c3ccc(-c4ccccc4)cc3)[C@@H]2C1
AC50 [21]: 9.01 µM (active) | AC50 [22]: 4.43 µM (active)

O=S(=O)(c1ccccc1)N1C[C@@H]2N[C@H](C1)[C@@H]2c1ccc(-c2ccc(F)cc2)cc1
AC50 [21]: 10.9 µM (active) | AC50 [22]: 5.34 µM (active)

COc1cccc(CN(C)C[C@H]2OCc3ccccc3-c3c(n(C)c4ccccc34)C(=O)N([C@@H](C)CO)C[C@H]2C)c1
AC50 [21]: 18 µM (active) | AC50 [22]: 1.62 µM (active)

Cc1ccc(Nc2nc(N)c3ccccc3n2)cc1Cl
EC50 [24]: 0.528 µM (active) | IC50 [2]: > 67.6 µM (inactive) | EC50 [4]: > 67.6 µM (inactive) | EC50 [25]: 4.99 µM (active)
